According to US20170211073A1, “ANTISENSE ANTINEOPLASTIC AGENT” (priority 2014, published 2017):

Columns and labels:
[1] = system: gemcitabine-resistant human pancreatic cancer SUIT2 cells; experiment: Antitumor effect of YB-1 ASO AmNA into blood, gemcitabine-resistant SUIT2 subcutaneous tumor; assay type: in vivo, nude mice
Description: Antitumor effect of administration into blood of YB-1 ASO of AmNA type, of which high safety was confirmed in Example 9 compared with ASO constituted with the conventional BNA, was examined. The human large intestine cancer cells HCT116 were subcutaneously transplanted to the thighs of nude mice. After subcutaneous tumors having a diameter of 6 to 7 mm (average tumor volume, 78 vs. 72 mm^3) were formed, 200 μg/200 μL of YB-1 ASO AmNA was administered (once every two weeks, total 2 times) into the blood from the caudal veins. The diameters of the tumors were measured over time, and tumor volumes calculated in accordance with a calculation formula, (Major axis)×(Minor axis)/2, were compared with those obtained with the control antisense group. The subcutaneous tumors were collected after one week from the second administration (day 28), and weights thereof were compared. In the YB-1 ASO AmNA group, both the tumor diameter and tumor weight were suppressed to about ⅕ of those observed with the control antisense group (FIG. 10, *P<0.05).
A human pancreatic cancer SUIT2 cell strain was prepared by culturing pancreatic cancer cells resistant to the anticancer agent, gemcitabine, for a long period of time in a medium containing gemcitabine at a low concentration (IC50 value, 100 nM for the resistant strain vs. 5 nM for the parent strain). […]

[2] = system: YB-1; experiment: YB-1 knockdown siRNA vs AmNA-AON, mRNA level (real-time RT-PCR); assay type: cell-based; conditions: AsPC-1, MIA PaCa-2, Suit-2; 20 nM; 48 hours
Description: YB-1-siRNA or YB-1 #10AmNA was introduced (final concentration, 20 nM) into cells of the pancreatic cancer cell strains (AsPC-1, MIA PaCa-2, and Suit-2). After 48 hours, RNAs and proteins were extracted, and the YB-1 expression was evaluated by real-time RT-PCR and Western blotting at the mRNA level (A) and protein level (B), respectively. Both the knockdown efficiencies obtained with siRNA and #10 AmNA-AON were high at the mRNA level, and any clear difference was not observed between them. […] The graphs show mean±SD (n=3, *P<0.05).

[3] = system: malignant mesothelioma cell strain H226; experiment: H226 subcutaneous tumor model; assay type: in vivo; conditions: 10 mg/kg BW caudal vein once a week for two weeks, vs control group
Description: Subcutaneous tumor models of the malignant mesothelioma cell strain H226 were prepared. […] A photograph of the subcutaneous tumor after the treatment is shown in the left panel.

[4] = system: CD31; experiment: Microvessel density by CD31 immunostaining in SUIT2-GR subcutaneous tumor; assay type: in vivo, nude mice; conditions: administration into the blood
Text: The neovascularity marker CD31 in the SUIT2-GR subcutaneous tumor of the treatment experiment (A) was immunostained. As a result, it was observed that the microvessel density was decreased by the administration of #10 AmNA YB-1 antisense into the blood, and thus inhibition of neovascularization was induced (FIG. 14C).

[5] = system: ovarian cancer cell strain SKOV-3; experiment: Anticancer agent sensitivity enhancement, SKOV-3; assay type: cell-based; conditions: antisense 5 nM, 5-FU, gemcitabine
Description: The #10 AmNA YB-1 antisense (5 nM) was introduced into cells of the pancreatic cancer cell strain MIA PaCa-2 (FIG. 19A) and ovarian cancer cell strain SKOV-3 (FIG. 19B) using the reagent Lipofectamine RNAiMax, and cell-killing effects of the anticancer agent observed in the presence and absence of the antisense were compared. […] The anticancer agent concentrations that provided equivalent cell-killing effects are shown in blue color (5-FU) or red color (gemcitabine).

[6] = system: gemcitabine-resistant pancreatic cancer SUIT2-GR cells; experiment: Repetitive administration into blood, SUIT2-GR subcutaneous tumor growth; assay type: in vivo, nude mice; conditions: 10 mg/kg BW caudal vein once a week over three weeks, days 14 and 21
Description: The tumor diameters were measured over time.

In the case of “TCTcctgcaccCTGg (TCTCCTGCACCCTGG; chemistry not fully specified) [#10AmNA]”, the “tumor weight as fraction of control antisense group” value [1] is reported as “about ⅓”, the “tumor diameter as fraction of control antisense group” value ([1]; 200 μg/200 μL into blood, once every two weeks, total 2 times) is reported as “about ⅓” and the “knockdown efficiency at the mRNA level” value [2] is reported as “high”. For the same substance, the “increase of the tumor in terms of tumor weight” value [3] was “significantly suppressed”, the “microvessel density (CD31)” value [4] was “decreased” and the “cell-killing effects of the anticancer agent in presence of the antisense” value [5] was “Enhancement of the cell-killing effect”. For the same substance, the subcutaneous tumor-suppressing effect [6] was “significant subcutaneous tumor-suppressing effect”.
